From article PMC10223884, “Oligosaccharide Ligands of Galectin-4 and Its Subunits: Multivalency Scores Highly” (Molecules, 2023)
Several values for one entry are separate records, joined by “and”; a condition that tells them apart may be missing. Equal entries are not always repeated.

T1: Gal-4 (Homo sapiens, UniProt P56470)
T1 construct: made in house; host or cells: Escherichia coli Rosetta (DE3) pLysS
T1 sequence (P56470 1-323): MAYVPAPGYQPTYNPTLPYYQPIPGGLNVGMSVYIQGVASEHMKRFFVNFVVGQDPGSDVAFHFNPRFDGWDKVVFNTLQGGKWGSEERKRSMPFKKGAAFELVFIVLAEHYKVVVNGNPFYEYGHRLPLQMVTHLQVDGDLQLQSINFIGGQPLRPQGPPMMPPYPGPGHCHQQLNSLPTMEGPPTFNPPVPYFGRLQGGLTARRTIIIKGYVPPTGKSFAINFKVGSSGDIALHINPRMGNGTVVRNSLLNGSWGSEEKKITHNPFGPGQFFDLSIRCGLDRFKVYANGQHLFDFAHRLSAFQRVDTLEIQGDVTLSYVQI

T2: Gal-4NL (Homo sapiens, UniProt P56470)
T2 construct: designated as Gal-4NL (aa 1-160), and Gal-4CL (aa 169-323), respectively; made in house; host or cells: E. coli Rosetta (DE3) pLysS
T2 sequence (P56470 1-160): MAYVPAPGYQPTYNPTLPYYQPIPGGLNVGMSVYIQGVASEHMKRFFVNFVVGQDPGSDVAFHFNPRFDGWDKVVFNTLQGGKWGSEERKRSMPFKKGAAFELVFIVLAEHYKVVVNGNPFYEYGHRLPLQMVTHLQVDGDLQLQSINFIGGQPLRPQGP

T3: Gal-4CL (Homo sapiens, UniProt P56470)
T3 construct: designated as Gal-4NL (aa 1-160), and Gal-4CL (aa 169-323), respectively; made in house; host or cells: E. coli Rosetta (DE3) pLysS
T3 sequence (P56470 169-323): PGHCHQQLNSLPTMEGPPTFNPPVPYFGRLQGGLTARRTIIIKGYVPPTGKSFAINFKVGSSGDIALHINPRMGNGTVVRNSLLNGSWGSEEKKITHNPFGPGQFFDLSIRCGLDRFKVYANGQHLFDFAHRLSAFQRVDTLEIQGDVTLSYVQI

T4: asialofetuin (standard glycoprotein, MW 48.4 kDa) (UniProt P12763 19-359, glycoprotein without sialic acid; carries up to nine LacNAc epitopes)
T4 construct: Asialofetuin (desialylated fetuin), MW 48.4 kDa; Commercial asialofetuin is commonly from fetal calf serum; also called ASF
T4 sequence (looked up): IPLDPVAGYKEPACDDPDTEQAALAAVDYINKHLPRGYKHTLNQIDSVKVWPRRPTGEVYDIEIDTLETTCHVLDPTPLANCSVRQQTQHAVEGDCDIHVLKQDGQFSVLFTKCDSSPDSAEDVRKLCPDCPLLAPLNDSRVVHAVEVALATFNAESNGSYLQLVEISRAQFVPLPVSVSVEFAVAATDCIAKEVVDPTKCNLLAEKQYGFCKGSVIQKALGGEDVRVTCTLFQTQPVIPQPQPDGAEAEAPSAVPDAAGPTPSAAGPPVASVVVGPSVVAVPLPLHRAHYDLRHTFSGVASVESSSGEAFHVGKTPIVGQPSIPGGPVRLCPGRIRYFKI


Assays:
Gal-4 = molecular target: T1, Gal-4; assay: competitive ELISA, inhibition of binding of whole Gal-4 to immobilized ASF; settings: for IC50: competitive ELISA, Gal-4 2.5 µM, immobilized ASF; for rp, relative potency (IC50 (lactose)/IC50 (ligand)): whole Gal-4
Method: (§1) To design the ELISA method, we first examined the direct binding of the whole Gal-4, Gal-4NL, and Gal-4-CL to standard glycoprotein asialofetuin (ASF, MW 48.4 kDa), which carries up to nine LacNAc epitopes. The ASF was immobilized by hydrophobic interaction in microtiter-plate wells, and the binding of increasing concentrations of Gal-4 proteins was quantified by colorimetric immunodetection using horseradish peroxidase conjugated to an anti-His-tag antibody. The apparent dissociation constants (KD) were calculated from the non-linear regression of the binding curves (Figure 3). […] While for the Gal-4 ELISA measurement we used the concentration of Gal-4 of 2.5 μM, for both subunits, it was 25 μM. […] The Gal-4 proteins were incubated with increasing concentrations of the respective inhibitors, and the concentration-dependent inhibition of the binding to the immobilized ASF was quantified using spectrophotometric colorimetric immunodetection (HRP-conjugated anti-His-tag antibody). The respective half-maximal inhibition constants (IC50) were calculated from the non-linear regression of the sigmoidal curves (Figure 3), and they are shown in Table 2 and Table 3.
(§2) Each incubation step was followed by washing the wells with 3 × 250 µL phosphate-buffered saline (PBS) containing 0.05% Tween® 20. In total, 0.1 µM ASF in PBS (50 µL/well) was coated onto microtiter plates (Nunc Immuno Sorb, ThermoFisher Scientific, Waltham, MA, USA) overnight. After blocking the wells with 2 mg/mL bovine serum albumin (BSA) in PBS buffer (250 µL/well, 1 h), serial dilutions of the inhibitors in PBS buffer containing 2 mM EDTA (EPBS) were incubated with Gal-4 (2.5 µM final dimer concentration) or its subunits, Gal-4CL and Gal-4NL (25 µM final monomer concentration) for 2 h (50 µL/well). The residual bound galectin was labeled with an anti-His-antibody conjugated with horseradish peroxidase (HRP) (Santa Cruz Biotechnology, Heidelberg, Germany; 1:999 dilution in PBS). The colorimetric reaction with TMB One substrate solution (Kem-En-Tec, Taastrup, Denmark; 50 µL/well) was stopped with 3 M hydrochloric acid (HCl) (50 µL/well) and quantified spectrophotometrically at 450 nm (Sunrise; Tecan Group Ltd., Männedorf, Switzerland). The values of half-maximal inhibitory concentrations (IC50) were calculated by non-linear regression (dose–response inhibition-variable slope) of sigmoidal curves from a minimum of three independent experiments using GraphPad Prism 8.4.3 (GraphPad Software, San Diego, CA, USA).

Gal-4NL = molecular target: T2, Gal-4NL; assay: competitive ELISA, inhibition of binding of Gal-4NL subunit to immobilized ASF; settings: for IC50: competitive ELISA, Gal-4NL 25 µM, immobilized ASF
Method: as §1, §2

Gal-4CL = molecular target: T3, Gal-4CL; assay: competitive ELISA, inhibition of binding of Gal-4CL subunit to immobilized ASF; settings: for IC50: competitive ELISA, Gal-4CL 25 µM, immobilized ASF
Method: as §1, §2

[1] = dynamic light scattering (DLS) of Gal-4 and its subunits in solution; format: physicochemical; settings: 25 µM, 25 °C
Method: Therefore, we decided to obtain more insights into the potential aggregation behavior of the Gal-4 subunits in solution, which, theoretically, might have contributed to the multivalency effect, even with the monovalent Gal-4 subunits. The hydrodynamic radii of the whole Gal-4 and its subunits in the concentrations used in the ELISA assay (25 µM) were assessed using dynamic light scattering (DLS). This method provided information about the size distribution of the particles in the samples (Table 4). […] Therefore, the larger particles seemed to be more abundant in these distribution diagrams because light scattering is proportional to the sixth power of the scattering-matter diameter. To avoid misinterpretation, we also present the volume-weighed size distributions in Table 4, which highlight the most abundant populations of particles. These values indicate that in the cases of the whole Gal-4 and Gal-4CL, the large aggregates at 1200 nm and 400 nm, respectively, can be neglected (the volume-weighted size distributions accounted for 9 and 7 nm, respectively). The whole Gal-4 formed the most abundant particles, of 11 nm, which was similar to Gal-4CL with 8 nm particles. In the case of Gal-4NL, the solution was more polydisperse, and two significant populations were observed. The first population, of 1.3 nm, probably represented the individual Gal-4NL subunits, whereas the slightly larger population of 16 nm belonged to the aggregated species.
The hydrodynamic diameter of the Gal-4 and its subunits (25 μM) was measured by dynamic light scattering (DLS) using Zetasizer Nano S90 (Malvern Instruments Ltd., Malvern, UK) at 25 °C. The light scattered at θ = 173° from the incident light was fitted to an autocorrelation function using the method of cumulants (Malvern Instruments Ltd., Malvern, UK). The hydrodynamic diameters were determined from five independent repetitions (10–50 runs) in Malvern disposable plastic cuvettes. The particle-size distribution was determined by analyzing the multimodal peak by intensity and volume.

[2] = molecular target: T4, asialofetuin (standard glycoprotein, MW …); assay: ELISA; direct ELISA; ASF (0.1 µM in PBS) coated on microtiter plate overnight, blocked with BSA; increasing concentrations of Gal-4 or its subunits, 2 h; detected with HRP-conjugated anti-His antibody; apparent KD from non-linear regression; settings: both partners purified

Molecule | IC50 (Gal-4) | rp, relative potency (IC50 (lactose)/IC50 (ligand)) (Gal-4) | rp Gal-4NL, relative potency (IC50 (lactose)/IC50 (ligand)) (Gal-4NL) | IC50 (Gal-4NL) | rp Gal-4CL, relative potency (IC50 (lactose)/IC50 (ligand)) (Gal-4CL) | IC50 (Gal-4CL) | other results
C[C@@H]1O[C@@H](O[C@H]2[C@H](O[C@H]3[C@H](O)[C@@H](O)C(O)O[C@@H]3CO)O[C@H](CO)[C@H](O)[C@@H]2O)[C@@H](O)[C@H](O)[C@@H]1O (stereo partly drawn) [2′-fucosyllactose (2), 2′-fucosyllactose] | 1500 ± 200 µM | 1.7 | 4.8 | 600 ± 60 µM | 7.8 | 1100 ± 100 µM | 
CC(=O)N[C@H]1C(O)O[C@H](CO)[C@H](O)[C@@H]1O[C@@H]1O[C@H](CO)[C@H](O)[C@H](O)[C@H]1O (stereo partly drawn) [TF antigen motif (9), β-D-galactopyranosyl-(1→3)-2-acetamido-2-deoxy-D-galactopyranose] | 1180 ± 50 µM | 2.1 | 0.8 | 3500 ± 200 µM | 1.5 | 5800 ± 500 µM | 
CC(=O)N[C@H]1[C@H](O[C@H]2[C@@H](O)[C@@H](CO)O[C@@H](O[C@H]3[C@H](O)[C@@H](O)C(O)O[C@@H]3CO)[C@@H]2O)O[C@H](CO)[C@@H](O[C@@H]2O[C@H](CO)[C@H](O)[C@H](O)[C@H]2O)[C@@H]1O (stereo partly drawn) [lacto-N-neotetraose (4), lacto-N-neotetraose] | 600 ± 100 µM | 4.1 | 7.3 | 400 ± 100 µM | 10 | 800 ± 300 µM | 
CC(=O)N[C@H]1[C@H](O[C@H]2[C@@H](O)[C@@H](CO)O[C@@H](O[C@H]3[C@H](O)[C@@H](O)C(O)O[C@@H]3CO)[C@@H]2O)O[C@H](CO)[C@@H](O)[C@@H]1O[C@@H]1O[C@H](CO)[C@H](O)[C@H](O)[C@H]1O (stereo partly drawn) [lacto-N-tetraose (3), lacto-N-tetraose] | 430 ± 70 µM | 5.9 | 14 | 210 ± 30 µM | 18.3 | 470 ± 900 µM | 
OC[C@H]1O[C@@H](O[C@H]2[C@H](O)[C@@H](O)[C@H](O)O[C@@H]2CO)[C@H](O)[C@@H](O)[C@H]1O [lactose (1), lactose] | 2500 ± 200 µM | 1.0 | 1.0 | 2900 ± 400 µM | 1.0 | 8600 ± 1100 µM | 
CC(C)(C)OC(=O)NCCNC(=S)N[C@@H]1O[C@H](CO)[C@@H](O[C@@H]2O[C@H](CO)[C@H](O)[C@H](O)[C@H]2O)[C@H](O)[C@H]1O [lactosyl-tBoc 10] | 2500 µM |  |  |  |  |  | 
Gal-4NL: N-terminal subunit of Gal-4 (aa 1-160) with 10-amino-acid linker, His-tagged (protein, left off: His6, N-terminal, kept, N-terminal subunit of Gal-4 (aa 1-160) with 10-amino-acid linker, His-tagged) MAYVPAPGYQPTYNPTLPYYQPIPGGLNVGMSVYIQGVASEHMKRFFVNFVVGQDPGSDVAFHFNPRFDGWDKVVFNTLQGGKWGSEERKRSMPFKKGAAFELVFIVLAEHYKVVVNGNPFYEYGHRLPLQMVTHLQVDGDLQLQSINFIGGQPLRPQGP |  |  |  |  |  |  | Intensity-Weighed Size Distribution Area (first population) [1]: 13%; Intensity-Weighed Size Distribution Area (second population) [1]: 50%; Intensity-Weighed Size Distribution Size (first population) [1]: 1.3 nm and 1.3 ± 0.3 nm; Intensity-Weighed Size Distribution Size (second population) [1]: 16 nm and 16 ± 7 nm; PDI, polydispersity index [1]: 0.4; Volume-Weighted Size Distribution Area [1]: 100%; Volume-Weighted Size Distribution Size [1]: 3 ± 1 nm
Galectin-4 (whole, His6-tagged construct of human Gal-4) (natural protein, UniProt P56470 1-323, looked up, Galectin-4, human, whole protein (two CRDs joined by the linker peptide); also called whole Gal-4; total Gal-4; not shown: His6, N-terminal, kept) MAYVPAPGYQPTYNPTLPYYQPIPGGLNVGMSVYIQGVASEHMKRFFVNFVVGQDPGSDVAFHFNPRFDGWDKVVFNTLQGGKWGSEERKRSMPFKKGAAFELVFIVLAEHYKVVVNGNPFYEYGHRLPLQMVTHLQVDGDLQLQSINFIGGQPLRPQGPPMMPPYPGPGHCHQQLNSLPTMEGPPTFNPPVPYFGRLQGGLTARRTIIIKGYVPPTGKSFAINFKVGSSGDIALHINPRMGNGTVVRNSLLNGSWGSEEKKITHNPFGPGQFFDLSIRCGLDRFKVYANGQHLFDFAHRLSAFQRVDTLEIQGDVTLSYVQI |  |  |  |  |  |  | Kd [2]: 3.3 ± 1.1 µM
